The text below walks through data of patent US20100179227A1, “Production method of hop preparation, hop preparation, anti-inflammatory agent, food product and beverage, and oral product” (priority 2006, published 2010).

One assay has as its system mRNA of COX-2 gene. Description: Suppression of COX-2 mRNA expression in gingival epithelial cells stimulated with P. gingivalis vesicles (real-time RT-PCR). In kind it is cell-based. As to conditions: human gingival epithelium-derived immortalized cells stimulated with P. gingivalis-derived vesicles; mRNA measured 24 hours after addition, standardized to GAPDH mRNA. Here is the method:
The expression levels of mRNA of COX-2 gene were determined.
The P. gingivalis-derived vesicles were prepared as follows: P. gingivalis strain (ATCC 33277) was cultured for 3 days and the cells were removed from the 500 ml culture by centrifugation and filtration. The supernatant was ultracentrifuged at 100,000 G at 4° C. for 1 hour to obtain the desired vesicles. The expression levels of mRNA of COX-2 gene were determined by measuring the amounts of mRNA by real-time RT-PCR 24 hours after addition of each substance. The PCR was performed by using primers specific for the COX-2 gene and amplification was carried out for 45 cycles. The amount of mRNA was standardized to the amount of mRNA of glyceraldehyde-3-phosphate dehydrogenase.
The 80% ethanol fraction obtained in Example 1 was fractionated by reverse-phase HPLC and the resulting fractions corresponding to the respective peaks were collected. As in Example 2, the fractions were incubated with human gingival epithelium-derived immortalized cells stimulated with the vesicles obtained from P. gingivalis (inflammation-inducing agent). The expression levels of mRNA of COX-2 were determined.

The target in the next assay is cyclooxygenase-1 (COX-1) (Homo sapiens, UniProt P23219). As to conditions: according to Non-Patent Document 1; cited from earlier work.
Sequence of cyclooxygenase-1 (COX-1) (P23219 24-599, species assumed): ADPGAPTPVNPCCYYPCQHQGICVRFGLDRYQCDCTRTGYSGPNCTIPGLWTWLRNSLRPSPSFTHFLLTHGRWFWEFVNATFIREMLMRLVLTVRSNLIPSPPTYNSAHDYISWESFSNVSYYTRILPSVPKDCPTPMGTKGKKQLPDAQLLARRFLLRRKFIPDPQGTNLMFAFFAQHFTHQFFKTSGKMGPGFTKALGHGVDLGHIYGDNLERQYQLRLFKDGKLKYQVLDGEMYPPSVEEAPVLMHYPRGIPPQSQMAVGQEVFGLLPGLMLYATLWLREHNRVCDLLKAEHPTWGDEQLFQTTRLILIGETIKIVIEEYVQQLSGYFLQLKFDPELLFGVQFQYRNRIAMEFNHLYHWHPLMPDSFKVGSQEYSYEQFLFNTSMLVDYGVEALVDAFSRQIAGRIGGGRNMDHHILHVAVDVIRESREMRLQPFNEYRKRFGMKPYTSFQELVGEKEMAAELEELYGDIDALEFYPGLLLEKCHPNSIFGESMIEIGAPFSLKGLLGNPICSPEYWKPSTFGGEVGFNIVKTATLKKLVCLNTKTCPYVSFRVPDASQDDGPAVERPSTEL
For assay [1] the following is noted: as described in Patent Documents 1, 2 and 5; cited from earlier work.

Molecules are shown by their SMILES.

`CC(C)C(=O)c1c(O)cc(O)cc1O[C@@H]1O[C@H](CO)[C@@H](O)[C@H](O)[C@H]1O` [MPPG, 2-[(2-methylpropanyl)-phloroglucinol]-1-O-β-D-glucopyranoside]: the “suppression of the expression of mRNA of COX-2 gene” value (“suppression” below) in the assay on mRNA of COX-2 gene is given as “activity”. Besides, the “inhibition of cyclooxygenase-1 (COX-1)” value on cyclooxygenase-1 (COX-1) is reported as “inhibits cyclooxygenase-1 (COX-1)”.

`O=c1c(O[C@@H]2O[C@H](CO)[C@@H](O)[C@H](O)[C@H]2O)c(-c2ccc(O)cc2)oc2cc(O)cc(O)c12` [astragalin, kaempferol-3-O-β-D-glucopyranoside]: the “suppression” value in the assay with mRNA of COX-2 gene is recorded as “activity”. For the same molecule, the anti-inflammatory activity entry in assay [1] is “exhibit anti-inflammatory activity”.

For `O=c1c(O[C@@H]2O[C@H](CO)[C@@H](O)[C@H](O)[C@H]2O)c(-c2ccc(O)c(O)c2)oc2cc(O)cc(O)c12` [isoquercitrin, quercetin-3-O-β-D-glucopyranoside], the “suppression” value with mRNA of COX-2 gene was “activity”. Also, the anti-inflammatory activity result in assay [1] was “exhibit anti-inflammatory activity”.
